These results are taken from ChEMBL document CHEMBL1133309, “Computational binding studies of human pp60c-src SH2 domain with a series of nonpeptide, phosphophenyl-containing ligands” (Bioorg Med Chem Lett, 2000).

By IC50 is commonly meant the concentration needed to halve the response being measured. The low end stands for higher potency, the high end for lower potency.

The structures appear in SMILES notation.

In this experiment the target is Proto-oncogene tyrosine-protein kinase Src (Homo sapiens, UniProt P12931). The experiment can be described thus: Binding affinity for Human pp60c-src SH2 domain.
Sequence of Proto-oncogene tyrosine-protein kinase Src (P12931 2-536 limits assumed): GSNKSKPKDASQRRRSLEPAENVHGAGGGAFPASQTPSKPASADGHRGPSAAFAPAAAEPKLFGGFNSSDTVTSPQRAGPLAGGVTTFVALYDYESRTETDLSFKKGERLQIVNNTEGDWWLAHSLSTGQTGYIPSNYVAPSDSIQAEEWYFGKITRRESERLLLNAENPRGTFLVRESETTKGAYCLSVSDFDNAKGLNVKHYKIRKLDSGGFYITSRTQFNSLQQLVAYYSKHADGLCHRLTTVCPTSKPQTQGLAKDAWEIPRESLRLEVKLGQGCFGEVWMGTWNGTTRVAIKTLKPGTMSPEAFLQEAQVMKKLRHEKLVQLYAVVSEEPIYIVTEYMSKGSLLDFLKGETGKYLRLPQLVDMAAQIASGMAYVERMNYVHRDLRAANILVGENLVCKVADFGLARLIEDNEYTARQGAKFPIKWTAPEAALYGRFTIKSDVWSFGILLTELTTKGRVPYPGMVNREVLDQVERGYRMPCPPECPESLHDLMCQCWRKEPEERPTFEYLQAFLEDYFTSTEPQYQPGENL
`CNC(=O)c1cc(CNC(=O)c2ccc(OP(=O)(O)O)cc2)ccc1OCC1CCCCC1`: the IC50 worked out at 30 µM.

Consider `O=C(NCc1ccc(OCC2CCCCC2)cc1)c1ccc(OP(=O)(O)O)cc1`, for which the IC50 was over 100 µM.

Molecule `CC(=O)c1cc(CNC(=O)c2ccc(OP(=O)(O)O)cc2)ccc1OCC1CCCCC1` yielded an IC50 of 69 µM.
